ChEMBL document CHEMBL1201862, “PubChem BioAssay data set” (2004)
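Tested at 5 concentrations; 48 h exposure; 96-well plates; endpoints linearly interpolated, else capped at highest concentration. GI50: concentration for 50% inhibition of growth.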 Active and inactive are the calls of the source. Cut-off read from the data, not from the text of the source: active = GI50 up to about 1.1 µM and inactive = higher.

Experiments:
Assay in all cases: DTP human tumour cell line panel, 48 h
UO-31 = tested on: UO-31
NCI-H460 = tested on: NCI-H460
HL-60 = tested on: HL-60
M14 = tested on: M14
HOP-62 = tested on: HOP-62
OVCAR-8 = tested on: OVCAR-8
NCI-H226 = tested on: NCI-H226
DMS-114 = tested on: DMS-114
SF-295 = tested on: SF-295
SNB-75 = tested on: SNB-75
SF-539 = tested on: SF-539
MCF7 = tested on: MCF7
BT-549 = tested on: BT-549
A549 = tested on: A549
HCT-116 = tested on: HCT-116
TK-10 = tested on: TK-10
HCT-15 = tested on: HCT-15
LXFL 529 = tested on: LXFL 529
SR = tested on: SR
COLO 205 = tested on: COLO 205
ACHN = tested on: ACHN
OVCAR-5 = tested on: OVCAR-5
U-251 = tested on: U-251
KM-20L2 = tested on: KM-20L2
CCRF-CEM = tested on: CCRF-CEM
NCI-H522 = tested on: NCI-H522
EKVX = tested on: EKVX
NCI-H23 = tested on: NCI-H23
786-0 = tested on: 786-0
PC-3 = tested on: PC-3
SF-268 = tested on: SF-268
SN12C = tested on: SN12C
DMS-273 = tested on: DMS-273
SNB-19 = tested on: SNB-19
CAKI-1 = tested on: CAKI-1
OVCAR-4 = tested on: OVCAR-4
HOP-92 = tested on: HOP-92
SK-OV-3 = tested on: SK-OV-3
LOX IMVI = tested on: LOX IMVI
SNB-78 = tested on: SNB-78
UACC-62 = tested on: UACC-62
MOLT-4 = tested on: MOLT-4
OVCAR-3 = tested on: OVCAR-3
A498 = tested on: A498
T47D = tested on: T47D
M19-MEL = tested on: M19-MEL
RXF 393 = tested on: RXF 393
SK-MEL-5 = tested on: SK-MEL-5
UACC-257 = tested on: UACC-257
HCC 2998 = tested on: HCC 2998
KM12 = tested on: KM12
MDA-MB-231 = tested on: MDA-MB-231
NCI/ADR-RES = tested on: NCI/ADR-RES
MDA-MB-435 = tested on: MDA-MB-435
SK-MEL-28 = tested on: SK-MEL-28
SK-MEL-2 = tested on: SK-MEL-2
DU-145 = tested on: DU-145
HT-29 = tested on: HT-29
RPMI-8226 = tested on: RPMI-8226
SW-620 = tested on: SW-620
MDA-N = tested on: MDA-N
Malme-3M = tested on: Malme-3M
Hs-578T = tested on: Hs-578T
IGROV-1 = tested on: IGROV-1
DLD-1 = tested on: DLD-1
K562 = tested on: K562

Compound: Cc1nc2cc(/N=N/c3c(O)ccc4ccccc34)ccc2[nH]1
- GI50 (UO-31): 45.1 µM (inactive)
- GI50 (NCI-H460): 34.8 µM (inactive)
- GI50 (HL-60): 15.1 µM (inactive)
- GI50 (M14): 38.4 µM (inactive)
- GI50 (HOP-62): > 64.7 µM (inactive)
- GI50 (OVCAR-8): 27.4 µM (inactive)
- GI50 (NCI-H226): > 62.2 µM (inactive)
- GI50 (DMS-114): 25.8 µM (inactive)
- GI50 (SF-295): 41.1 µM (inactive)
- GI50 (SNB-75): > 72.1 µM (inactive)
- GI50 (SF-539): 26.7 µM (inactive)
- GI50 (MCF7): 21.2 µM (inactive)
- GI50 (BT-549): 27.2 µM (inactive)
- GI50 (A549): 44.5 µM (inactive)
- GI50 (HCT-116): 23.3 µM (inactive)
- GI50 (TK-10): > 76.2 µM (inactive)
- GI50 (HCT-15): 32.3 µM
- GI50 (LXFL 529): 19.9 µM (inactive)
- GI50 (SR): 24.2 µM (inactive)
- GI50 (COLO 205): 29.5 µM (inactive)
- GI50 (ACHN): 32.3 µM (inactive)
- GI50 (OVCAR-5): > 75.5 µM (inactive)
- GI50 (U-251): 27.3 µM (inactive)
- GI50 (KM-20L2): > 100 µM (inactive)
- GI50 (CCRF-CEM): 16.1 µM (inactive)
- GI50 (NCI-H522): 22.8 µM (inactive)
- GI50 (EKVX): > 49.9 µM (inactive)
- GI50 (NCI-H23): > 62.2 µM (inactive)
- GI50 (786-0): 22 µM (inactive)
- GI50 (PC-3): 21 µM (inactive)
- GI50 (SF-268): > 68.5 µM (inactive)
- GI50 (SN12C): 36.9 µM (inactive)
- GI50 (DMS-273): 19.4 µM (inactive)
- GI50 (SNB-19): > 96.4 µM (inactive)
- GI50 (CAKI-1): 26.6 µM (inactive)
- GI50 (OVCAR-4): 18.8 µM (inactive)
- GI50 (HOP-92): 24 µM (inactive)
- GI50 (SK-OV-3): > 100 µM (inactive)
- GI50 (LOX IMVI): 18.5 µM (inactive)
- GI50 (SNB-78): 83 µM (inactive)
- GI50 (UACC-62): 46.3 µM (inactive)
- GI50 (MOLT-4): 21 µM (inactive)
- GI50 (OVCAR-3): 25.2 µM (inactive)
- GI50 (A498): > 55 µM (inactive)
- GI50 (T47D): 21 µM (inactive)
- GI50 (M19-MEL): 23.2 µM (inactive)
- GI50 (RXF 393): > 42.4 µM (inactive)
- GI50 (SK-MEL-5): 31.9 µM (inactive)
- GI50 (UACC-257): 24.8 µM (inactive)
- GI50 (HCC 2998): > 50.5 µM (inactive)
- GI50 (KM12): 25.4 µM (inactive)
- GI50 (MDA-MB-231): 27.8 µM (inactive)
- GI50 (NCI/ADR-RES): 24.3 µM (inactive)
- GI50 (MDA-MB-435): 23.1 µM (inactive)
- GI50 (SK-MEL-28): 98.6 µM (inactive)
- GI50 (SK-MEL-2): 42.2 µM (inactive)
- GI50 (DU-145): 36 µM (inactive)
- GI50 (HT-29): 40.6 µM (inactive)
- GI50 (RPMI-8226): 24.3 µM (inactive)
- GI50 (SW-620): 32.4 µM (inactive)
- GI50 (MDA-N): 17 µM (inactive)
- GI50 (Malme-3M): > 51.2 µM (inactive)
- GI50 (Hs-578T): 28.2 µM (inactive)
- GI50 (IGROV-1): > 45.3 µM (inactive)
- GI50 (DLD-1): 24 µM (inactive)
- GI50 (K562): 23.9 µM (inactive)

Compound: CCC1=C(CC)C1(C#N)[N+](=O)[O-]
- GI50 (UO-31): > 100 µM (inactive)
- GI50 (NCI-H460): > 100 µM (inactive)
- GI50 (HL-60): > 100 µM (inactive)
- GI50 (M14): > 100 µM (inactive)
- GI50 (HOP-62): > 100 µM (inactive)
- GI50 (OVCAR-8): > 100 µM (inactive)
- GI50 (NCI-H226): > 100 µM (inactive)
- GI50 (DMS-114): > 100 µM (inactive)
- GI50 (SF-295): > 100 µM (inactive)
- GI50 (SF-539): > 100 µM (inactive)
- GI50 (A549): > 100 µM (inactive)
- GI50 (HCT-116): > 100 µM (inactive)
- GI50 (TK-10): > 100 µM (inactive)
- GI50 (HCT-15): > 100 µM
- GI50 (LXFL 529): > 100 µM (inactive)
- GI50 (SR): > 100 µM (inactive)
- GI50 (COLO 205): > 100 µM (inactive)
- GI50 (ACHN): > 100 µM (inactive)
- GI50 (OVCAR-5): > 100 µM (inactive)
- GI50 (U-251): > 100 µM (inactive)
- GI50 (KM-20L2): > 100 µM (inactive)
- GI50 (CCRF-CEM): > 100 µM (inactive)
- GI50 (NCI-H522): > 100 µM (inactive)
- GI50 (EKVX): > 100 µM (inactive)
- GI50 (NCI-H23): > 100 µM (inactive)
- GI50 (786-0): > 100 µM (inactive)
- GI50 (SF-268): > 100 µM (inactive)
- GI50 (SN12C): > 100 µM (inactive)
- GI50 (DMS-273): > 100 µM (inactive)
- GI50 (SNB-19): > 100 µM (inactive)
- GI50 (CAKI-1): > 100 µM (inactive)
- GI50 (OVCAR-4): > 100 µM (inactive)
- GI50 (SK-OV-3): > 100 µM (inactive)
- GI50 (LOX IMVI): > 100 µM (inactive)
- GI50 (SNB-78): > 100 µM (inactive)
- GI50 (UACC-62): > 100 µM (inactive)
- GI50 (MOLT-4): > 100 µM (inactive)
- GI50 (OVCAR-3): > 100 µM (inactive)
- GI50 (A498): > 100 µM (inactive)
- GI50 (M19-MEL): > 100 µM (inactive)
- GI50 (SK-MEL-5): > 100 µM (inactive)
- GI50 (UACC-257): > 100 µM (inactive)
- GI50 (KM12): > 100 µM (inactive)
- GI50 (SK-MEL-2): > 100 µM (inactive)
- GI50 (HT-29): > 100 µM (inactive)
- GI50 (RPMI-8226): 82.2 µM (inactive)
- GI50 (SW-620): > 100 µM (inactive)
- GI50 (Malme-3M): > 100 µM (inactive)
- GI50 (IGROV-1): > 100 µM (inactive)
- GI50 (DLD-1): > 100 µM (inactive)
- GI50 (K562): > 100 µM (inactive)
